Measurements: US6972287B1, “Method of inhibiting amyloid protein aggregation and imaging amyloid deposits” (Pfizer Inc., priority 1999, dated 2005)
Where “and” joins values, the source holds several entries; their conditions need not be identical. Equal values may be shown once.

What was measured:
Aβ(1-40) [1] = biological target: T1, Aβ(1-40) (Homo sapiens, UniProt P05067); assay: BASST (Beta-Amyloid Self-Seeding, Thioflavin T), inhibitors of self-seeded amyloid fibril growth; assay type: biochemical; details: 30 μM soluble Aβ(1-40), 37° C., 3 to 5 hours, thioflavin T fluorescence; replicate values; letter = synthetic lot; read-out: BASST (IC50 = μM)
T1 construct: […]; purchased Bachem, Torrance, Calif
T1 sequence (P05067 672-711 limits assumed): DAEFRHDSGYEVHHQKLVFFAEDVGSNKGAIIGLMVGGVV
Summary of the method: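 Self-seeded Aβ(1-40) fibril growth was run in 50 mM sodium phosphate pH 7.5, 100 mM NaCl, 0.02% NaN3, 1 M urea. Compounds were tested in 3-fold serial dilutions (top 100 μM final): 10 min on ice, then 3–5 h at 37 °C. Fibrils were read by 5 μM thioflavin T fluorescence (ex 440/em 485 nm).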

Aβ(1-40) [2] = biological target: T1, Aβ(1-40); assay: BASSR (Beta-Amyloid Self-Seeding Radioassay), inhibitors of self-seeded amyloid fibril growth; assay type: biochemical; details: 30 μM soluble Aβ(1-40) + 125I-labeled Aβ(1-40), 37° C., 3 to 5 hours; replicate values; letter = synthetic lot; ppt = precipitate; V-shaped = inhibition followed by precipitation
Summary of the method: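 Self-seeded growth of ^125I-labeled Aβ(1-40) fibrils in 50 mM sodium phosphate pH 7.5, 100 mM NaCl, 0.02% NaN3, 1 M urea; compound (3-fold dilutions from 100 μM final) preincubated 10 min on ice, then 3–5 h at 37° C. Fibrils collected by vacuum filtration on 0.2 μm filters and counted for radioactivity.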

Aβ (1-42) = biological target: T2, Aβ (1-42) (Homo sapiens, UniProt P05067); assay: BATYM assay (Aβ (1-42) aggregation, Thioflavin T fluorescence); assay type: biochemical; details: Aβ 1-42 final concentration 100 μM, 37° C., 1 day, letter = synthetic lot
T2 construct: Required Aβ (1-42) (California Peptide) was dried from its hexafluoroisopropanol (HFIP) stock solution; purchased California Peptide
T2 sequence (P05067 672-713 limits assumed): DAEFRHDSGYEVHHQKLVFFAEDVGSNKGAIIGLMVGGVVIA
Summary of the method: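 Aβ (1-42) (100 μM final, PBS pH 7.4 from DMSO) incubated with compound at 37° C. for 1 day. Aggregation read by ThT (30 μM, glycine-NaOH pH 8.5) fluorescence, ex 440/em 485 nm; inhibition as fluorescence reduction corrected for compound-alone signal, IC50 by curve fitting from two experiments in triplicate.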

Aβ (1-40) peptide = biological target: T3, Aβ (1-40) peptide (Homo sapiens, UniProt P05067); assay: BAPA (Beta-Amyloid Peptide Aggregation, pH 6.0, filtration); assay type: biochemical; details: Aβ (1-40) 33 μM, pH 6.0, 2 to 4 hours at room temperature; replicate values; letter = synthetic lot
T3 construct: 10 μL 0.5 mg/mL Aβ (1-40) peptide in 20% HFIP
T3 sequence (P05067 672-711 limits assumed): as the sequence (P05067 672-711 limits assumed) above
Summary of the method: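 Aggregation of human Aβ (1-40) peptide was measured in an endpoint filtration assay. The peptide was first reduced to monomer with hexafluoroisopropanol (HFIP), then used at 33 μM so it would aggregate at pH 6.0, and incubated for 2 to 4 hours at room temperature. Filter plates were washed with 100 μL phosphate buffer, impregnated with Meltilex, and counted on a Microbeta counter with background correction.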

SMILES	IC50 (Aβ(1-40) [1])	IC50 (Aβ(1-40) [2])	IC50 (Aβ (1-42))	melting point [°C]	IC50 (Aβ (1-40) peptide)
Cc1ccc(Nc2ccc(CCc3ccc(Cl)c(Cl)c3)cc2)c(C(=O)O)c1 [Example 75, 2-{4-[2-(3,4-Dichloro-phenyl)-ethyl]-phenylamino}-5-methyl-benzoic acid]	2.2 µM	> 100 µM	46.2 µM	153 to 160	> 60 µM
O=C(O)c1cc([N+](=O)[O-])ccc1Nc1ccc(CCc2ccccc2Cl)cc1 [Example 76, 2-{4-[2-(2-Chloro-phenyl)-ethyl]-phenylamino}-5-nitrobenzoic acid]	0.5 µM	3 µM	8.59 µM	236 to 238	> 60 µM
CN(C)c1ccc(Nc2ccc(CCc3ccc(Cl)c(Cl)c3)cc2)c(C(=O)O)c1 [Example 80, 2-{4-[2-(3,4-Dichloro-phenyl)-ethyl]-phenylamino}-5-dimethylamino-benzoic acid]	4 µM	> 100 µM	24.8 µM	75 to 80	> 60 µM
O=C(O)c1ccccc1Nc1ccc(CCc2cc(Cl)cc(Cl)c2)cc1 [Example 81, 2-{4-[2-(3,5-Dichloro-phenyl)-ethyl]-phenylamino}-benzoic acid]	15 µM	> 100 µM	48.4 µM	191 to 194	73 µM
O=C(O)c1ccccc1Nc1ccc(CCc2ccc(F)c(F)c2)cc1 [Example 122, 2-{4-[2-(3,4-Difluoro-phenyl)-ethyl]-phenylamino}-benzoic acid]	2 µM	> 100 µM	> 100 µM	184 to 185	> 60 µM
COc1ccc(CCc2ccc(Nc3ccccc3C(=O)O)cc2)c(OC)c1 [Example 125, 2-{4-[2-(2,4-Dimethoxy-phenyl)-ethyl]-phenylamino}-benzoic acid]	10 µM	82 µM	> 100 µM	180 to 181	80 µM
O=C(O)c1ccccc1Nc1ccc(CCc2ccccc2Cl)cc1 [Example 126, 2-{4-[2-(2-Chloro-phenyl)-ethyl]-phenylamino}-benzoic acid]	4 µM (2×) and 5 µM and 10 µM	> 100 µM (2×) and 30 µM	84 µM and 73.9 µM	140 to 143	63 µM and > 60 µM
O=C(O)c1ccc(Nc2ccc(CCc3ccc(Cl)c(Cl)c3)cc2)c(C(=O)O)c1 [Example 144, 4-{4-[2-(3,4-Dichloro-phenyl)-ethyl]-phenylamino}-isophthalic acid]	40 µM	15 µM and 25 µM	> 100 µM	264 to 266	114 µM
O=C(O)c1ccc(C(F)(F)F)cc1Nc1ccc(CCc2ccc(Cl)c(Cl)c2)cc1 [Example 145, 2-{4-[2-(3,4-Dichloro-phenyl)-ethyl]-phenylamino}-4-trifluoromethyl-benzoic acid]	4 µM	10 µM and 40 µM and 30 µM	56.8 µM	134 to 136	9 µM
CN(C)c1ccc(N(C)c2ccc(CCc3ccc(Cl)c(Cl)c3)cc2)c(C(=O)O)c1 [Example 147, 2-({4-[2-(3,4-Dichloro-phenyl)-ethyl]-phenyl}-methyl-amino)-5-dimethylamino-benzoic acid]	10 µM	> 100 µM	93.4 µM	128 to 131	> 60 µM

Continued, values first:

IC50 (Aβ(1-40) [1])	IC50 (Aβ(1-40) [2])	IC50 (Aβ (1-42))	melting point [°C]	IC50 (Aβ (1-40) peptide)	SMILES
2 µM and 2.5 µM	40 µM and 15 µM and 12 µM	74.8 µM	168 to 171	> 60 µM	O=C(O)c1cccnc1Nc1ccc(CCc2ccc(Cl)c(Cl)c2)cc1 [Example 72, 2-{4-[2-(3,4-Dichloro-phenyl)-ethyl]-phenylamino}-nicotinic acid]
0.3 µM	25 µM and 35 µM and 40 µM	9.43 µM	192.5 to 194.5	> 60 µM	O=C(O)c1cc([N+](=O)[O-])ccc1Nc1ccc(CCc2cccc(Cl)c2)cc1 [Example 73, 2-{4-[2-(3-Chloro-phenyl)-ethyl]-phenylamino}-5-nitro-benzoic acid]
0.3 µM and 0.5 µM	6 µM and 18 µM (2×) and 19 µM	8.36 µM	210 to 212	> 60 µM	O=C(O)c1cc([N+](=O)[O-])ccc1Nc1ccc(CCc2ccc(Cl)cc2)cc1 [Example 74, 2-{4-[2-(4-Chloro-phenyl)-ethyl]-phenylamino}-5-nitro-benzoic acid]
0.1 µM	70 µM	> 100 µM	130 to 132	8 µM	O=C(O)c1c(Nc2ccc(CCc3ccc(Cl)c(Cl)c3)cc2)cccc1C(F)(F)F [Example 78, 2-{4-[2-(3,4-Dichloro-phenyl)-ethyl]-phenylamino}-6-trifluoromethyl-benzoic acid]
10 µM	> 100 µM	> 100 µM	218 to 219	67 µM	O=C(O)c1ccccc1Nc1ccc(CCc2ccccc2O)cc1 [Example 127, 2-{4-[2-(2-Hydroxy-phenyl)-ethyl]-phenylamino}-benzoic acid]
10 µM	> 100 µM	93.5 µM	137 to 138	> 60 µM	O=C(O)c1cccc(Nc2ccc(CCc3ccc(Cl)c(Cl)c3)cc2)c1 [Example 131, 3-{4-[2-(3,4-Dichloro-phenyl)-ethyl]-phenylamino}-benzoic acid]
> 100 µM	> 100 µM	> 100 µM	146 to 147	> 60 µM	COc1cc(CCc2ccc(Nc3ccccc3C(=O)O)cc2)cc(OC)c1OC [Example 133, 2-{4-[2-(3,4,5-Trimethoxy-phenyl)-ethyl]-phenylamino}-benzoic acid]
2 µM	> 100 µM	36.5 µM	153 to 154	> 60 µM	O=C(O)c1ccccc1Nc1ccc(CCc2ccc(Oc3ccccc3)cc2)cc1 [Example 134, 2-{4-[2-(4-Phenoxy-phenyl)-ethyl]-phenylamino}-benzoic acid]
1.2 µM	> 100 µM	31.2 µM	106 to 108	> 60 µM	O=C(O)c1ccccc1Nc1ccc(CCCCCc2ccc(Cl)c(Cl)c2)cc1 [Example 135, 2-{4-[5-(3,4-Dichloro-phenyl)-pentyl]-phenylamino}-benzoic acid]
